The values below come from publication PMC7714403 (JCI Insight, 2020).

One may read the IC50 as the concentration that gives 50% inhibition. In general, Inhibition refers to how much of the control response was suppressed. As usually defined, the inhibition is the change of the read-out against control, counted positive when it falls.

The test system of experiment [1] is OCI-AML3 cells. The experiment is described as follows: Viability assay. It is filed as cell-based. Particulars: Homo sapiens, OCI-AML-3, read-out: IC50 viability. How it is done:
Drug treatments were carried out for 72 hours. Details are provided in the Supplemental Methods.

Experiment [2] relates to MV4-11, MOLM13, and MOLM13-RES cells. The experiment is described as follows: Cell cycle analysis. It is filed as cell-based, human. As to conditions: 20 nM, 12 hours. Here is the method:
(§1) Luc+ or MOLM13-Res -Luc+ cells, 0.5 million OCI-AML3 -Luc+ cells, and 10,000 Ba/F3-FLT3-ITD/F691L-GFP+ cells. Weekly tumor engraftment of cell line xenograft models were assessed after injection of D-luciferin (150mg/kg i.p.; Gold Biotechnology, Inc, St. Louis, MO) on Xenogen IVIS-200 imaging system (Perkin Elmer, Waltham, MA) or GFP monitoring by peripheral blood via BD LSR II flow cytometer (BD Biosciences, San Jose, CA). Signal intensity was analyzed using Living Image Software (PerkinElmer) or FlowJo v10.0.08 software (FlowJo, LLC, Ashland, OR). Mice were randomized to treatment groups based on signal intensity and leukemia burden. Drug treatments were started on days 3, 7, or 13 after cell injection in OCI-AML3, MOLM13, and MOLM13-Res xenografts, respectively. In murine AML transplantation model, 1 million FLT3-ITD+/-/IDH2-R140Q+/- splenocytes (in house colony) were intravenously injected in male NSG mice. On day 7, mice were started on drug treatments. […]
(§2) At indicated time points, cells were collected and washed with PBS. CD11b expression was measured using anti-CD11b -APC antibody (BioLegend, San Diego, CA). […] CD11b expression and apoptosis were measured by BD LSR II flow cytometer. […]
(§3) with DAPI in 0.1% Triton-X (ThermoFisher Scientific) PBS for 30 minutes at room temperature and protected from light. The DNA content was determined using a BD LSR II flow cytometer. […]

The subject of experiment [3] is OCI-AML3 cells. The experiment is described as follows: Cell cycle analysis. Particulars: 20 nM, 12–24 hours. The class given is cell-based, human. How it is done:
as §1, §2, §3

In experiment [4] the test system is CaMK2a, CaMK2b, CaMK2d, CaMK2g. The experiment is described as follows: KiNativ, OCI cells live cell. It is filed as cell-based, human. As to conditions: labeling site Lys2, peptide DLKPENLLLASK
In a further experiment the target is CDK5 (Homo sapiens, UniProt Q00535). The experiment is described as follows: KiNativ, OCI cells live cell. The class given is cell-based. As to conditions: 2 h.
Another experiment deals with MAP4K3 (Homo sapiens, UniProt Q8IVH8). The experiment is described as follows: KiNativ, OCI cells live cell. The class given is cell-based. Particulars: labeling site Lys2, peptide DIKGANILLTDNGHVK
The target in another experiment is SGK3 (Homo sapiens, UniProt Q96BR1). The experiment is described as follows: KiNativ, OCI cells live cell. It is filed as cell-based. As to conditions: 2 h, labeling site Lys1, peptide […].
Chain of SGK3 (Q96BR1 whole entry): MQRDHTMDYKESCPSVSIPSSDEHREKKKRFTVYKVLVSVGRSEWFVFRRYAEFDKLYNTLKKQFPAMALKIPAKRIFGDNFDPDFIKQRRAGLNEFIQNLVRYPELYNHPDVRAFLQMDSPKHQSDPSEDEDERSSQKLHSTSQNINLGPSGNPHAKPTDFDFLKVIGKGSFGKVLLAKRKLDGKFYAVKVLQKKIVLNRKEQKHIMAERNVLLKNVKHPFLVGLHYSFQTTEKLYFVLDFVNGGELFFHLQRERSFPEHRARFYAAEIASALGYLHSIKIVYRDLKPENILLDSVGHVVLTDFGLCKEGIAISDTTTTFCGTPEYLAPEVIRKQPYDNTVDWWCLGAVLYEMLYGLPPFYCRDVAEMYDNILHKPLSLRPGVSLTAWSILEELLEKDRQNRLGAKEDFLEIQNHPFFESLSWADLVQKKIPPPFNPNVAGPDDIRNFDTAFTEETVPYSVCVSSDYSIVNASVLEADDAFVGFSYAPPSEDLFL

Chain of CDK5 (Q00535 whole entry): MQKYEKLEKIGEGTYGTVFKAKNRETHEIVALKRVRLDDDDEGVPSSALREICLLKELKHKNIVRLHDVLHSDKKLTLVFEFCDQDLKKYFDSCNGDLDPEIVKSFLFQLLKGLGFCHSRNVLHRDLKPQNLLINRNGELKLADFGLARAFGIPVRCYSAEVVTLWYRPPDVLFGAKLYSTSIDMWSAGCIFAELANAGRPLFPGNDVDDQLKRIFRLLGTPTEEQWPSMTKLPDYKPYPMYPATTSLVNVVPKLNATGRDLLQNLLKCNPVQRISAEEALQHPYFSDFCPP
Chain of MAP4K3 (Q8IVH8 whole entry): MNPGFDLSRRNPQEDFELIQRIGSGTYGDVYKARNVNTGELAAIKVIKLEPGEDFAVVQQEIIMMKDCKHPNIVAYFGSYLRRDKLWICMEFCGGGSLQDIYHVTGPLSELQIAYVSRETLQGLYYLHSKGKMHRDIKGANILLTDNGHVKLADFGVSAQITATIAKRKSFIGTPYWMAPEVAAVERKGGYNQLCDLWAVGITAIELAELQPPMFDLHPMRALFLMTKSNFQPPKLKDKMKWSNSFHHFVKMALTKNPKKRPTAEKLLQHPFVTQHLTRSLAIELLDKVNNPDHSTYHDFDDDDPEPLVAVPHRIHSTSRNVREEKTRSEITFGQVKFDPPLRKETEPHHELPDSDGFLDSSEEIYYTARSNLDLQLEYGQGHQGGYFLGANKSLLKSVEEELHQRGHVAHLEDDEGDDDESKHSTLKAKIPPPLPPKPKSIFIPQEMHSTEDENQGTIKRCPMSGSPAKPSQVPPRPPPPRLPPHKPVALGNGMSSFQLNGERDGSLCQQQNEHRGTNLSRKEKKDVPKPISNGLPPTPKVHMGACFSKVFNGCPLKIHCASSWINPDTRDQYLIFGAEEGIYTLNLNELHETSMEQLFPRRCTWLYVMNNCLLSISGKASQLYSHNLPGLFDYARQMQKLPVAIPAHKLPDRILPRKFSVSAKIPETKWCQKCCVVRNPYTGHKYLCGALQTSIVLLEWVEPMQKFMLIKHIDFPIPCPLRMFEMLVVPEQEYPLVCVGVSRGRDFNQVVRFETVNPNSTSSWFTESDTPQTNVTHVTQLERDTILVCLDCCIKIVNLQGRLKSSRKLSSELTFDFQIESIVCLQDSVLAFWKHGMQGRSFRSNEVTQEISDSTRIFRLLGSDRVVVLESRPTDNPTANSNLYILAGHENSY

For the compound `CN1CCN(Cc2ccc(Nc3ncc(Cl)c(Nc4ccccc4S(=O)(=O)N(C)C)n3)cc2)CC1` [TP-0903], the IC50 with OCI-AML3 cells [1] is 37 nM. Further, the Cell cycle result (in experiment [2]; with OCI-AML3 cells [3]) was “G2-M cell cycle arrest” in each case. Moreover, the results for the Inhibition (in experiment [4]; on MAP4K3) were 17.4% and 64.9%, respectively. The inhibition at 0.1 µM was 57% at CDK5 (labeling site Lys1, peptide NRETHEIVALKR); 55.5% against CDK5 (labeling site Lys2, peptide DLKPQNLLINR); -12.3% against SGK3.
